According to patent publication US20240199647A1, “ANTI-VIRAL COMPOUNDS” (Aligos Therapeutics, Inc., priority 2022, published 2024):
Like-named read-outs stand apart in the source and are kept apart here.

Tests used:
SARS-Cov-2 3CLpro = SARS-Cov-2 3CLpro (Severe acute respiratory syndrome coronavirus 2, UniProt P0DTD1); assay: biochemical; conditions: Table A, class symbols, read-out: SARS-Cov-2 (IC50)
[1] = Cytotoxicity in HeLa cells without addition of OC43 virus (in parallel); conditions: human, HeLa cells, without OC43 virus
[2] = system: SARS-CoV-2 B.1.1.7 lineage; assay: microbe, parasite or virus in culture; format: cell-based; conditions: Severe acute respiratory syndrome coronavirus 2, Table C, SARS-CoV-2 B.1.1.7 in A549-dual_ACE2_TMPRSS2 cells, read-out: A549-dual_ACE2_TMPRSS2 (EC50)
in vitro = conditions: human
[3] = system: human beta-coronavirus OC43; assay: OC43 Coronavirus Assay in HeLa cells (antiviral, cytopathic effect, cell-titer-glo); format: cell-based; conditions: Betacoronavirus 1, OC43, HeLa, Table B; OC43 coronavirus in HeLa cells, class symbols; read-out: EC50

| SMILES | IC50 (SARS-Cov-2 3CLpro) | CC50 at 6 days [1] | EC50 ([2]; class symbols) | CC50 (in vitro) | EC50 [3] | EC50 ([2]; cells given as a bound) |
| --- | --- | --- | --- | --- | --- | --- |
| CC(C)C[C@@H](C(=O)N1C[C@]2(CCC3(CC3)NC2=O)C[C@H]1C#N)N(C)C(=O)[C@H](C)NC(=O)C(F)(F)F [Compound 20] | 20 to 200 nM | > 10000 nM | 100 to 1000 nM | > 1000 nM | 1000 to 10000 nM |  |
| CN(C(=O)c1ncc(-c2ccccc2)[nH]1)[C@@H](CC1CC1)C(=O)N1C[C@@]2(C[C@H]1C#N)Oc1cccnc1NC2=O [Compound 208] | 20 to 200 nM | > 10000 nM | 100 to 1000 nM | > 1000 nM | 100 to 1000 nM |  |
| Cc1ccc2c(n1)NC(=O)[C@]1(C[C@@H](C#N)N(C(=O)[C@H](CC3CC3)N(C)C(=O)[C@H](C)NC(=O)C(F)(F)F)C1)O2 [Compound 229, (S)—N—((S)-1-((2R,5'S)-5′-cyano-6-methyl-3-oxo-3,4-dihydrospiro[pyrido[3,2-b][1,4]oxazine-2,3′-pyrrolidin]-1′-yl)-3-cyclopropyl-1-oxopropan-2-yl)-N-methyl-2-(2,2,2-trifluoroacetamido)propanamide] | < 20 nM | > 10000 nM | 100 to 1000 nM | > 1000 nM | < 100 nM |  |
| CN(C(=O)[C@H](CC1CC1)NC(=O)C(F)(F)F)[C@@H](CC1CC1)C(=O)N1C[C@@]2(C[C@H]1C#N)Oc1cccnc1CNC2=O [Compound 121, (S)—N—((S)-1-((2R,5'S)-5′-cyano-3-oxo-4,5-dihydro-3H-spiro[pyrido[2,3-f][1,4]oxazepine-2,3′-pyrrolidin]-1′-yl)-3-cyclopropyl-1-oxopropan-2-yl)-3-cyclopropyl-N-methyl-2-(2,2,2-trifluoroacetamido)propanamide] | < 20 nM | > 10000 nM | 100 to 1000 nM | > 1000 nM | < 100 nM |  |
| Cc1c(-c2ccccc2)nn2c1NC(=O)[C@]21C[C@@H](C#N)N(C(=O)[C@H](CC(C)C)N(C)C(=O)[C@H](C)NC(=O)C(F)(F)F)C1 [Compound 130] | 20 to 200 nM | > 10000 nM | 100 to 1000 nM | > 1000 nM | 100 to 1000 nM |  |
| C[C@H](NC(=O)C(F)(F)F)C(=O)N(C)[C@@H](CC1CC1)C(=O)N1C[C@@]2(C[C@H]1C#N)Oc1ccccc1CNC2=O [Compound 163] | < 20 nM | > 10000 nM | 100 to 1000 nM | > 1000 nM | < 100 nM |  |
| COCC[C@H](NC(=O)C(F)(F)F)C(=O)N(C)[C@@H](CC1CC1)C(=O)N1C[C@@]2(C[C@H]1C#N)Oc1cc(F)cc(F)c1NC2=O [Compound 103] | < 20 nM | > 10000 nM | 100 to 1000 nM | > 1000 nM | 1000 to 10000 nM |  |
| CC(C)C[C@@H](C(=O)N1C[C@@]2(C[C@H]1C#N)N=C(C1CC1)NC2=O)N(C)C(=O)[C@H](C)NC(=O)C(F)(F)F [Compound 16] | 20 to 200 nM | > 10000 nM |  | > 1000 nM | 100 to 1000 nM | > 1000 nM |
| CN(C(=O)[C@@H](CC1CC1)NC(=O)C(F)(F)F)[C@@H](CC1CC1)C(=O)N1C[C@@]2(C[C@H]1C#N)Oc1cccnc1NC2=O [Compound 172] | < 20 nM | > 10000 nM | 100 to 1000 nM | > 1000 nM | 100 to 1000 nM |  |
| CN(C(=O)[C@H](CC1CC1)NC(=O)C(F)(F)F)[C@@H](CC(C)(C)C)C(=O)N1C[C@@]2(C[C@H]1C#N)Oc1ccccc1CNC2=O [Compound 164] | < 20 nM | > 10000 nM | < 100 nM | > 1000 nM | < 100 nM |  |
| C[C@H](NC(=O)C(F)(F)Cl)C(=O)N(C)[C@@H](CC1CC1)C(=O)N1C[C@@]2(CC1C#N)Oc1cccnc1NC2=O (some centres unmarked) [Compound 174] | < 20 nM | > 10000 nM | < 100 nM | > 1000 nM | < 100 nM |  |
| CC(C)C[C@@H](C(=O)N1C[C@@]2(C[C@H]1C#N)Oc1cc(F)cc(F)c1NC2=O)N(C)C(=O)[C@H](CC1CC1)NC(=O)C(F)(F)F [Example 36, (S)—N—((S)-1-((2R,5'S)-5′-cyano-5,7-difluoro-3-oxo-3,4-dihydrospiro[benzo[b][1,4]oxazine-2,3′-pyrrolidin]-1′-yl)-4-methyl-1-oxopentan-2-yl)-3-cyclopropyl-N-methyl-2-(2,2,2-trifluoroacetamido)propanamide] | < 20 nM | > 10000 nM | 100 to 1000 nM | > 1000 nM | < 100 nM |  |
| CN(C(=O)[C@H](CC1CC1)NC(=O)C(F)(F)F)[C@@H](CC1CC1)C(=O)N1C[C@@]2(C[C@H]1C#N)Oc1cc(F)cc(F)c1CNC2=O [Compound 207] | 20 to 200 nM | > 10000 nM | < 100 nM | > 1000 nM | < 100 nM |  |
